Experimental findings from PubChem BioAssay (NCI) are described below.

Assay in all cases: NCI-60 cell line screen, 48 h
The test system of test [1] is COLO 205 colon.
In test [2] the test system is SNB-75 CNS.
For test [3], the system named is SK-MEL-28 melanoma.
Test [4] relates to KM20L2 colon.
The test system of test [5] is TK-10 renal.
The subject of test [6] is DMS 114 small cell lung.
For test [7], the system named is M19-MEL melanoma.
Test [8] has as its system UACC-257 melanoma.
The test system of test [9] is OVCAR-8 ovarian.
For test [10], the system named is 786-0 renal.
Test [11] deals with OVCAR-3 ovarian.
Test [12] has as its system XF 498 CNS.

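Method: 48-hour compound exposure of cells in 96-well plates, five concentrations, linear interpolation of endpoints. TGI denotes the concentration required for complete inhibition of growth.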

In the case of `Cc1cccc(NC(=O)/C(=N\N)C(c2cnc3ccc([N+](=O)[O-])cc3n2)[N+](=O)[O-])c1C` (stereo not drawn), the TGI in test [1], in [2], in [3], in test [4], in test [5] and in test [6] was greater than 100 µM each time. For the same compound, the TGI in [7], in test [8], in test [9], in test [10], in test [11] and in test [12] was greater than 100 µM in each case.

For `Oc1cc(-n2cccn2)c(O)cc1-n1cccn1`, the TGI in test [1] was 37.9 µM; in [2], greater than 97.3 µM; in test [3] it was 64.9 µM; in [4] it was greater than 100 µM; in test [5], 49.6 µM; in test [6], greater than 67.6 µM. For the same compound, the TGI in test [7] was determined as 51.1 µM; in [8], 69.3 µM; in test [9], 51.9 µM; in test [10], 31.3 µM; in test [11], 40 µM; in [12], 32.7 µM.

As to `CCOC(=O)/C(I)=C/c1cc(OC)c(OC)c(OC)c1`, the TGI was 18.2 µM in [1]; greater than 100 µM in [2]; 7.88 µM in [3]; 12.4 µM in test [4]; 35.1 µM in test [5]; 9.49 µM in test [6]. In addition, the TGI is 19.3 µM in [7]; 25.7 µM in test [8]; 38.8 µM in test [9]; 33 µM in test [10]; 14.1 µM in test [11]; 27.5 µM in test [12].

For the compound `N[C@H](COCc1ccccc1)c1ccccc1`, the TGI in test [1] is 29.2 µM; in test [2], 56 µM; in test [3] it was greater than 100 µM; in test [4], 75.8 µM; in [5] it was greater than 100 µM; in test [6], 56.3 µM. In addition, the TGI in [7] was 64.3 µM; in [8] it was greater than 81.1 µM; in test [9] it was greater than 100 µM; in test [10] it was greater than 80.9 µM; in test [11], greater than 76.2 µM; in [12] it was 48.3 µM.

For the compound `CC1=C(C(=O)Nc2ccc(Cl)c(Cl)c2)C(c2ccc([N+](=O)[O-])cc2)C(C(=O)Nc2ccc(Cl)c(Cl)c2)=C(C)N1`, the TGI in [1] amounted to 3.13 µM; in test [2] it was 20.5 µM; in test [3], 9.93 µM; in test [4], 4.3 µM; in test [5] it was 55 µM; in test [6], 9.66 µM. In addition, the TGI in test [7] was 3.97 µM; in [8], 7.84 µM; in test [9] it was 8.58 µM; in [10] it was 11.1 µM; in [11] it was 4.56 µM; in test [12] it was 4.38 µM.

Turning to `Nc1nc(N)c(CCCCc2ccccc2)c(N)n1`, the TGI in test [1], in test [2], in [3], in test [4], in test [5] and in [6] was greater than 100 µM throughout. Besides, the TGI in test [7], in test [8], in [9], in test [10], in [11] and in [12] was greater than 100 µM in each case.

As for `N#CC1(C#N)C(c2ccccc2)C=CC12OCCCO2` (stereo not drawn), the TGI in test [1] was 93.6 µM; in test [2] it was greater than 100 µM; in test [3], greater than 100 µM; in test [4], greater than 100 µM; in test [5] it was greater than 100 µM; in [6], 67.8 µM. The TGI in test [7] was greater than 100 µM; in [8], greater than 100 µM; in test [9] it was 43 µM; in [10], greater than 100 µM; in [11], greater than 100 µM; in test [12] it was greater than 100 µM.

For the compound `COc1ccc(-c2[nH]c3ccccc3c2CCNS(=O)(=O)c2ccc(C)cc2)cc1`, the TGI is 4.03 µM in test [1]; greater than 10 µM in test [2]; greater than 10 µM in test [3]; greater than 10 µM in [4]; greater than 10 µM in test [5]; greater than 10 µM in test [6]. Moreover, the TGI in test [7], in test [8], in test [9], in test [10], in [11] and in test [12] was greater than 10 µM throughout.

`Cc1cc(=O)c2c(O)cc3c(c2o1)CC=C(COC1OC(COC2OC(CO)C(O)C(O)C2O)C(O)C(O)C1O)CO3` (stereo not drawn): the TGI in [1], in test [2], in test [3], in test [4], in test [5] and in test [6] was greater than 100 µM in each case. Further, the TGI in test [7], in [8], in test [9], in test [10], in test [11] and in test [12] was greater than 100 µM in each case.
